Measured values as given in ChEMBL document CHEMBL6083246 (Bioorg Med Chem, 2024).
Calls of active or inactive are those of the source. The rule behind the calls is not given here.

Tests used:
RAW264.7 [1] = test: Cytotoxicity against mouse RAW264.7 cells assessed as reduction in cell viability at < 640 uM incubated for 24 hrs by CCK8 assay; type: toxicity, cell-based; conditions: raw264.7, 24 h
RAW264.7 [2] = test: Antiinflammatory activity in LPS induced mouse RAW264.7 cells reduction in ROS production incubated for 24 hrs by DCFH-DA staining based microplate reader analysis; type: functional, cell-based
RAW264.7 [3] = test: Antiinflammatory activity in LPS induced mouse RAW264.7 cells assessed as reduction in NO production incubated for 24 hrs by Griess reagent based assay; type: functional, cell-based
[4] = target: Aldo-keto reductase family 1 member B1 (Mus musculus) (UniProt P45376); test: Induction of thermal stabilization of AKR1B1 in mouse RAW264.7 cells at 50 uM at 45 to 75 degreeC incubated for 2 hrs by cellular thermal shift assay; type: cell-based
RAW264.7 [5] = test: Cytotoxicity against mouse RAW264.7 cells assessed as reduction in cell viability at 1080 uM incubated for 24 hrs by CCK8 assay; type: toxicity, cell-based; conditions: raw264.7, 24 h
RAW264.7 [6] = test: Antiinflammatory activity in LPS induced mouse RAW264.7 cells assessed as reduction in TNFalpha production at 50 uM incubated for 24 hrs by ELISA; type: functional, cell-based
RAW264.7 [7] = test: Antiinflammatory activity in LPS induced mouse RAW264.7 cells reduction in ROS production at 50 uM incubated for 24 hrs by DCFH-DA staining based microplate reader analysis; type: functional, cell-based
RAW264.7 [8] = test: Antiinflammatory activity in LPS induced mouse RAW264.7 cells assessed as reduction in IL-6 production at 50 uM incubated for 24 hrs by ELISA; type: functional, cell-based
RAW264.7 [9] = test: Antiinflammatory activity in LPS induced mouse RAW264.7 cells assessed as reduction in NO production at 50 uM incubated for 24 hrs by Griess reagent based assay; type: functional, cell-based

Activity [4] | SMILES | Activity (RAW264.7 [1]) | Activity (RAW264.7 [2]) | Activity (RAW264.7 [3]) | Activity (RAW264.7 [5]) | Activity (RAW264.7 [6]) | Activity (RAW264.7 [7]) | Activity (RAW264.7 [8]) | Activity (RAW264.7 [9])
Active | O=C(/C=C/c1ccc(O)c(O)c1)O[C@@H]1C[C@@](O)(C(=O)O)C[C@@H](O)[C@@H]1O | Non-toxic | Dose-dependent-effect | Dose-dependent-effect | Toxic | – | – | – | –
Active | O=C(/C=C/c1ccc(O)c(O)c1)O[C@H]1[C@H](O)C[C@](O)(C(=O)O)C[C@H]1O | Non-toxic | Dose-dependent-effect | Dose-dependent-effect | Toxic | Active; Showed Higher Activity Compared To 5-Cqa | – | – | –
Active | O=C(/C=C/c1ccc(O)c(O)c1)O[C@@H]1C[C@](O)(C(=O)O)C[C@@H](O)[C@H]1O [CHLOROGENIC ACID] | Non-toxic | Dose-dependent-effect | Dose-dependent-effect | Toxic | Active; Showed Higher Activity Compared To 4-Cqa And 5-Cqa | Active | Active; Showed Higher Activity Compared To 4-Cqa And 5-Cqa | Active; Showed Higher Activity Compared To 4-Cqa And 5-Cqa
– | CC(/C=C1\SC(=S)N(CC(=O)O)C1=O)=C\c1ccccc1 | – | – | – | – | Active | – | Active | –
